Experimental findings from patent US6930118B2, “3-Oxadiazol-5-yl-1-aminoalkyl-1h-indole derivatives” (Amrad Operations Pty. Ltd., priority 2001, dated 2005) are described below.

For test [1], the system named is Sprague-Dawley rats. Kind of test: Antinociceptive testing (tail flick / plantar test) after intrathecal or intravenous administration. It is filed as in vivo. As to conditions: rat. The procedure:
The following sequence protocol was used for the acute intrathecal administration to Sprague-Dawley rats. Each rat only underwent one cycle of the sequence protocol:
Intrathecal catheter placement was carried out as first described by Yaksh and Rudy (1976) The general thrust of the catheter placement involves the PE-10 catheter inserted into the subarachnoid space via the antlanto-occipital membrane (as the entry point) and threaded down to the lumber expansion of the spinal cord (spinal cord level L5/L6). The catheter tip is then exteriorised over the forehead. All animals are, assessed for normal motor function and behaviour post-surgery. […]
Drugs were administered in a 0.1 ml volume followed by 0.1 ml saline (0.9% sodium chloride solution; Baxter, Toongabbie, N.S.W., Australia) flush. Tail flick nociception was measured at 15, 30, and in the case of 0.1 mg/kg CP 55,940, 45 min after intravenous administration.
The antinociception tests were all conducted using the Plantar Test Instrument (Ugo Basile, Varese, Italy) which comprises a movable infra-red (IR) heat source, a glass pane onto which the 3-compartment rat enclosure is placed and a controller. […] The withdrawal latency is measured by the time difference between the activation of the IR heat source and physical withdrawal of the paw or tail from the stimulus. […]

The test system of test [2] is Sprague-Dawley rats. Kind of test: Neuropathic pain testing: L5/L6 spinal nerve ligation, tactile allodynia with von Frey hairs. It is filed as in vivo. As to conditions: intraperitoneal injection, propylene glycol vehicle, rat. The source says: Production of a unilateral hind limb neuropathy in male Sprague-Dawley rats was achieved using the technique of L5 and L6 spinal nerve ligation, according to the method of Kim and Chung (1992). Animals were given one week to recover from surgery prior to testing for the development of […] pain.
The testing procedure involved the determination of tactile allodynia using von Frey hairs, which were applied sequentially to the plantar surface of the rat paw starting with 2 g of force and proceeding upwards to a maximum of 15.1 g of force or downwards to a minimum of 0.4 g force. The 15.1 g force was used to define the maximum possible effect (MPE) for this test of neuropathic pain. Once paw withdrawal occurred, the 50% withdrawal threshold was determined using the “up-down” method as published by Dixon (1980). Both hind paws were tested. Response to therapy as measured by tactile allodynia threshold was calculated using the percentage maximum possible effect (% MPE) according to the following equation: % MPE=100×([Measured value]−[Pre-treatment value])/([MPE]−[Pre-treatment value]).
Drugs were dissolved in a propylene glycol vehicle and administered via intraperitoneal injection.

With `c1ccc(Cc2noc(-c3cn(CCN4CCCC4)c4ccccc34)n2)cc1` [Compound 1, 3-(3-Benzyl-[1,2,4]-oxadiazol-5-yl)-1-[2-(pyrrolidin-1-yl)ethyl]-1H-indole], the antinociceptive effect result in test [1] (i.t. route) and in test [1] (i.v. route) was “provided an antinociceptive effect” each time. Also, the “antinociceptive effect in model of neuropathic pain” value in test [2] is given as “significant antinociceptive effect”.
